Measured values taken from US20100311714A1, “1H-IMIDAZO[4,5-c]QUINOLINONE COMPOUNDS” (priority 2009, published 2010).
Read-outs that look alike come from different tables or passages of the source.

Tests used:
[1] = tested on: PKB Ser473 phosphorylation in Rat1-myr-HA-p110 delta cells; assay: Reverse protein array, PKB Ser473 phosphorylation in Rat1-myr-HA-p110 delta cells; format: cell-based; conditions: Rattus norvegicus, 0.5 h, 30 minutes compound incubation, read-out: p-PKB/IC50_delta
[2] = target: T1, mTOR (Homo sapiens, UniProt P42345); assay: Biochemical assay for m-TOR by TR-FRET
T1 construct: purchased Invitrogen Corporation (Carlsbad/Calif., USA) PV4753
T1 sequence (P42345 1360-2549 limits assumed): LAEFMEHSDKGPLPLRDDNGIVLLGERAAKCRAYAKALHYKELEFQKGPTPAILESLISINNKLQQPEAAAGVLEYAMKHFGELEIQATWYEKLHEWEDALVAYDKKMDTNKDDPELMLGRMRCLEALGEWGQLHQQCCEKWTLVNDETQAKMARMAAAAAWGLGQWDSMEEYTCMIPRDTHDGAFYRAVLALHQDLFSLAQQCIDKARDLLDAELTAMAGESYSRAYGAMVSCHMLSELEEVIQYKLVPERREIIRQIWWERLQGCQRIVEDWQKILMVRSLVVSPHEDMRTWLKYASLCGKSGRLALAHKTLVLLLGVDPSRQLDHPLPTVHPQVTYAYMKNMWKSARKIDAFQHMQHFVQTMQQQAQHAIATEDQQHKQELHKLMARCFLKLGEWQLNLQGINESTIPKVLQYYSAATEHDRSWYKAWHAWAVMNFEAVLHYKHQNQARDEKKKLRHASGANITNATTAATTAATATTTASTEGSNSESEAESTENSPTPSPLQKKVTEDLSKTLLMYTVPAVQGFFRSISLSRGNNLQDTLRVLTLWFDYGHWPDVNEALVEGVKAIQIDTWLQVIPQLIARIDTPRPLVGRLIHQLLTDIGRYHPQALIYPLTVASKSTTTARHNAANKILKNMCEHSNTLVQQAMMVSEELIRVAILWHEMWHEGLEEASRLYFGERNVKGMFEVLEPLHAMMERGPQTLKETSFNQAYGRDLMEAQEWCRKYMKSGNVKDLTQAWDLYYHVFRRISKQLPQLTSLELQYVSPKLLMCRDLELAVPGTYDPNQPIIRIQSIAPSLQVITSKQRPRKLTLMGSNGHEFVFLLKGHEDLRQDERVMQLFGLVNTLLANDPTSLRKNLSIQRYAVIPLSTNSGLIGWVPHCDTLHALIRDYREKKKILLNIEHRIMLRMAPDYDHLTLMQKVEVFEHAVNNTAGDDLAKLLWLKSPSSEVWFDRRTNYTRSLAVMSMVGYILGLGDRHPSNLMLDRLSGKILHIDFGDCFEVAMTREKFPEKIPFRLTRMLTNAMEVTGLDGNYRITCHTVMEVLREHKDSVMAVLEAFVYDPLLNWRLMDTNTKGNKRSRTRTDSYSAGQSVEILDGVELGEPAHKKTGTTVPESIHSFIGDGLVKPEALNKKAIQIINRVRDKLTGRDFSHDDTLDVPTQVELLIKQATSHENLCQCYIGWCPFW
Summary of the method: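 mTOR (0.5 nM) phosphorylates GFP-4EBP1 (400 nM) with 8 μM ATP at rt in 50 mM HEPES pH 7.5, 10 mM MnCl2, 50 mM NaCl, 1 mM EGTA, 1 mM DTT; compounds 0.003–10 μM final. EDTA stop with Tb-anti-p4EBP1[pT46] antibody (0.5 nM); TR-FRET read after 15 min against no-enzyme and vehicle controls.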

IC50 [1] [nM]	IC50 ([2]; read-out: EPK_mTOR/IC50) [nM]	IC50 ([2]; read-out: mTOR/IC50) [nM]	SMILES
8.9	7		Cc1nc(N2CCC(O)C2)ccc1-n1c(=O)n(C)c2cnc3ccc(-c4cnc(N)c(C(F)(F)F)c4)cc3c21 (stereo not shown) [Example 27.3, 8-(6-Amino-5-trifluoromethyl-pyridin-3-yl)-1-[6-(3-hydroxy-pyrrolidin-1-yl)-2-methyl-pyridin-3-yl]-3-methyl-1,3-dihydro-imidazo[4,5-c]quinolin-2-one]
12.8	9		CCNc1cc(-c2ccc3ncc4c(c3c2)n(-c2ccc(N(C)CCO)nc2C)c(=O)n4C)cnc1CO [Example 26.3, 8-(5-Ethylamino-6-hydroxymethyl-pyridin-3-yl)-1-{6-[(2-hydroxy-ethyl)-methyl-amino]-2-methyl-pyridin-3-yl}-3-methyl-1,3-dihydro-imidazo[4,5-c]quinolin-2-one]
119	59		Cc1nc(F)ccc1-n1c(=O)n(C)c2cnc3ccc(-c4cncc(N5CCC5)c4)cc3c21 [Example 7.6, 8-(5-Azetidin-1-yl-pyridin-3-yl)-1-(6-fluoro-2-methyl-pyridin-3-yl)-3-methyl-1,3-dihydro-imidazo[4,5-c]quinolin-2-one]
29.1		12	CNC(=O)c1ccc(-c2ccc3ncc4c(c3c2)n(-c2cccnc2C)c(=O)n4C)cc1 [Example 2.4, N-Methyl-4-[3-methyl-1-(2-methyl-pyridin-3-yl)-2-oxo-2,3-dihydro-1H-imidazo[4,5-c]quinolin-8-yl]-benzamide]
315	301		COc1cc(-c2ccc3ncc4c(c3c2)n(-c2ccc(F)nc2C)c(=O)n4C)cnc1CO [Example 7.10, 1-(6-Fluoro-2-methyl-pyridin-3-yl)-8-(6-hydroxymethyl-5-methoxy-pyridin-3-yl)-3-methyl-1,3-dihydro-imidazo[4,5-c]quinolin-2-one]
38.1	23		CCOc1ccc(-c2ccc3ncc4c(c3c2)n(-c2ccc(N3CCC(O)C3)nc2C)c(=O)n4C)cn1 (stereo not shown) [Example 27.4, 8-(6-Ethoxy-pyridin-3-yl)-1-[6-(3-hydroxy-pyrrolidin-1-yl)-2-methyl-pyridin-3-yl]-3-methyl-1,3-dihydro-imidazo[4,5-c]quinolin-2-one]
350	5		Cc1nc(N2CC(O)C2)ccc1-n1c(=O)n(C)c2cnc3ccc(-c4cncc(C(C)(C)O)c4)cc3c21 [Example 29.1, 1-[6-(3-Hydroxy-azetidin-1-yl)-2-methyl-pyridin-3-yl]-8-[5-(1-hydroxy-1-methyl-ethyl)-pyridin-3-yl]-3-methyl-1,3-dihydro-imidazo[4,5-c]quinolin-2-one]
13.8			Cc1ncccc1-n1c(=O)n(C)c2cnc3ccc(-c4cnc5[nH]ccc5c4)cc3c21 [Example 2.8, 3-Methyl-1-(2-methyl-pyridin-3-yl)-8-(1H-pyrrolo[2,3-b]pyridin-5-yl)-1,3-dihydro-imidazo[4,5-c]quinolin-2-one]
599	86		COc1ccc(-n2c(=O)n(C)c3cnc4ccc(-c5cnc(C(OC)OC)c(OC)c5)cc4c32)c(OC)n1 [Example 8.13, 8-(6-Dimethoxymethyl-5-methoxy-pyridin-3-yl)-1-(2,6-dimethoxy-pyridin-3-yl)-3-methyl-1,3-dihydro-imidazo[4,5-c]quinolin-2-one]
598	447		COCc1ncc(-c2ccc3ncc4c(c3c2)n(-c2ccc(F)nc2C)c(=O)n4C)cc1OC [Example 7.7, 1-(6-Fluoro-2-methyl-pyridin-3-yl)-8-(5-methoxy-6-methoxymethyl-pyridin-3-yl)-3-methyl-1,3-dihydro-imidazo[4,5-c]quinolin-2-one]
178	50		COc1cc(-c2ccc3ncc4c(c3c2)n(-c2ccc(N3CC[C@H](O)C3)nc2C)c(=O)n4C)cnc1CO [Example 32.7, 8-(6-Hydroxymethyl-5-methoxy-pyridin-3-yl)-1-[6-((S)-3-hydroxy-pyrrolidin-1-yl)-2-methyl-pyridin-3-yl]-3-methyl-1,3-dihydro-imidazo[4,5-c]quinolin-2-one]
93.1	5		COc1ccc(-n2c(=O)n(C)c3cnc4ccc(-c5cncc(N6CCC6)c5)cc4c32)c(OC)n1 [Example 8.11, 8-(5-Azetidin-1-yl-pyridin-3-yl)-1-(2,6-dimethoxy-pyridin-3-yl)-3-methyl-1,3-dihydro-imidazo[4,5-c]quinolin-2-one]
715	118		COc1cc(-c2ccc3ncc4c(c3c2)n(-c2ccc(N)nc2C)c(=O)n4C)cnc1CO [Example 30.1, 1-(6-Amino-2-methyl-pyridin-3-yl)-8-(6-hydroxymethyl-5-methoxy-pyridin-3-yl)-3-methyl-1,3-dihydro-imidazo[4,5-c]quinolin-2-one]
336	77		COCc1ncc(-c2ccc3ncc4c(c3c2)n(-c2cccnc2C)c(=O)n4C)cc1OC [Example 2.30, 8-(5-Methoxy-6-methoxymethyl-pyridin-3-yl)-3-methyl-1-(2-methyl-pyridin-3-yl)-1,3-dihydro-imidazo[4,5-c]quinolin-2-one]
42	28		CNc1ncc(-c2ccc3ncc4c(c3c2)n(-c2ccc(N3CC[C@@H](O)C3)nc2C)c(=O)n4C)cn1 [Example 34.1, 1-[6-((R)-3-Hydroxy-pyrrolidin-1-yl)-2-methyl-pyridin-3-yl]-3-methyl-8-(2-methylamino-pyrimidin-5-yl)-1,3-dihydro-imidazo[4,5-c]quinolin-2-one]
186	115		COc1ccc(-n2c(=O)n(C)c3cnc4ccc(-c5cnc(CO)c(OC)c5)cc4c32)c(OC)n1 [Example 8.14, 1-(2,6-Dimethoxy-pyridin-3-yl)-8-(6-hydroxymethyl-5-methoxy-pyridin-3-yl)-3-methyl-1,3-dihydro-imidazo[4,5-c]quinolin-2-one]
43.2		47	Cn1c(=O)n(-c2cccnc2F)c2c3cc(-c4cnc5[nH]ccc5c4)ccc3ncc21 [Example 6.3, 1-(2-Fluoro-pyridin-3-yl)-3-methyl-8-(1H-pyrrolo[2,3-b]pyridin-5-yl)-1,3-dihydro-imidazo[4,5-c]quinolin-2-one]
88.5	449		COc1cc(-c2ccc3ncc4c(c3c2)n(-c2ccc(N3CC(F)(F)C3)nc2C)c(=O)n4C)cnc1CO [Example 24.4, 1-[6-(3,3-Difluoro-azetidin-1-yl)-2-methyl-pyridin-3-yl]-8-(6-hydroxymethyl-5-methoxy-pyridin-3-yl)-3-methyl-1,3-dihydro-imidazo[4,5-c]quinolin-2-one]
121	172		COc1cc(-c2ccc3ncc4c(c3c2)n(-c2ccc(N3CCC(OC)C3)nc2C)c(=O)n4C)cnc1CO (stereo not shown) [Example 28.3, 8-(6-Hydroxymethyl-5-methoxy-pyridin-3-yl)-1-[6-(3-methoxy-pyrrolidin-1-yl)-2-methyl-pyridin-3-yl]-3-methyl-1,3-dihydro-imidazo[4,5-c]quinolin-2-one]
58.1	655		COc1cc(-c2ccc3ncc4c(c3c2)n(-c2ccc(N3CCCC3)nc2C)c(=O)n4C)cnc1CO [Example 25.4, 8-(6-Hydroxymethyl-5-methoxy-pyridin-3-yl)-3-methyl-1-(2-methyl-6-pyrrolidin-1-yl-pyridin-3-yl)-1,3-dihydro-imidazo[4,5-c]quinolin-2-one]
16	7		CNc1ncc(-c2ccc3ncc4c(c3c2)n(-c2ccc(N3CC[C@H](O)C3)nc2C)c(=O)n4C)cc1Cl [Example 32.4, 8-(5-Chloro-6-methylamino-pyridin-3-yl)-1-[6-((S)-3-hydroxy-pyrrolidin-1-yl)-2-methyl-pyridin-3-yl]-3-methyl-1,3-dihydro-imidazo[4,5-c]quinolin-2-one]
16.3	45		CCNc1cc(-c2ccc3ncc4c(c3c2)n(-c2ccc(N3CC(F)(F)C(F)(F)C3)nc2C)c(=O)n4C)cnc1CO [Example 35.2, 8-(5-Ethylamino-6-hydroxymethyl-pyridin-3-yl)-3-methyl-1-[2-methyl-6-(3,3,4,4-tetrafluoro-pyrrolidin-1-yl)-pyridin-3-yl]-1,3-dihydro-imidazo[4,5-c]quinolin-2-one]
309	15		Cc1nc(N2CCC(O)C2)ccc1-n1c(=O)n(C)c2cnc3ccc(-c4cncc(C(C)(C)O)c4)cc3c21 (stereo not shown) [Example 27.5, 8-[5-(1-Hydroxy-1-methyl-ethyl)-pyridin-3-yl]-1-[6-(3-hydroxy-pyrrolidin-1-yl)-2-methyl-pyridin-3-yl]-3-methyl-1,3-dihydro-imidazo[4,5-c]quinolin-2-one]
7.6	22		CCNc1cc(-c2ccc3ncc4c(c3c2)n(-c2ccc(N3CCCC3)nc2C)c(=O)n4C)cnc1CO [Example 25.5, 8-(5-Ethylamino-6-hydroxymethyl-pyridin-3-yl)-3-methyl-1-(2-methyl-6-pyrrolidin-1-yl-pyridin-3-yl)-1,3-dihydro-imidazo[4,5-c]quinolin-2-one]
22.9	8		CNc1ncc(-c2ccc3ncc4c(c3c2)n(-c2ccc(N3CCC(OC)C3)nc2C)c(=O)n4C)cn1 (stereo not shown) [Example 28.2, 1-[6-(3-Methoxy-pyrrolidin-1-yl)-2-methyl-pyridin-3-yl]-3-methyl-8-(2-methylamino-pyrimidin-5-yl)-1,3-dihydro-imidazo[4,5-c]quinolin-2-one]
